{
  "source": "the supplement of paper PMC6965134",
  "experiment": "TIMS collisional cross section (CCS, N2) of the lipid ion; higher = larger ion cross section",
  "settings": "ionization mode: negative, one isomer drawn",
  "protocol": "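Lipid extracts of human plasma (NIST SRM 1950), mouse liver or HeLa cells were separated by nanoflow C18 LC (30 min gradient) and analysed by TIMS-PASEF on a timsTOF Pro. Ion mobility was calibrated with the Agilent tuning mix (negative mode ions) and converted to collisional cross sections (Mason–Schamp, N2).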",
  "note": "± gives the standard deviation of the averaged measurements.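 Also: lipids from MTBE extraction, five replicate injections per sample, 100 ms TIMS ramp spanning 0.6–1.95 Vs/cm², lipid identity assigned from PASEF MS/MS spectra.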",
  "data": [
    {"smiles": "CCCCCCCC/C=C\\CCCCCCCC(=O)OC(COC(=O)CCCCCCCCCCCCCCC)COP(=O)(O)OCCN", "note": "(stereo unspecified) [PE 16:0_18:1]", "values": [
      {"measurement": "TIMS collisional cross section", "setting": "sample type: Human plasma, ion (formula + adduct): [C39H76NO8P-H] 1-", "value": 268.4, "unit": "Å²"},
      {"measurement": "TIMS collisional cross section", "setting": "sample type: Mouse Liver, ion (formula + adduct): [C39H76NO8P-H] 1-", "value": 268.4, "unit": "Å²"}
    ]},
    {"smiles": "CC/C=C\\C/C=C\\C/C=C\\C/C=C\\C/C=C\\C/C=C\\CCC(=O)OC[C@@H](O)COP(=O)(O)O", "note": "[LPA 22:6_0:0]", "values": [
      {"measurement": "TIMS collisional cross section", "setting": "sample type: Human plasma, ion (formula + adduct): [C25H39O7P-H] 1-", "value": 211, "unit": "Å²"},
      {"measurement": "TIMS collisional cross section", "setting": "sample type: Mouse Liver, ion (formula + adduct): [C25H39O7P-H] 1-", "value": 211.6, "unit": "Å²"}
    ]},
    {"smiles": "CC/C=C\\C/C=C\\C/C=C\\C/C=C\\C/C=C\\C/C=C\\CCC(=O)O[C@H](COC(=O)CCCCCCC/C=C\\CCCCCCCC)COP(=O)(O)OC[C@@H](O)CO", "note": "[PG 18:1_22:6@]", "values": [
      {"measurement": "TIMS collisional cross section", "setting": "sample type: Mouse Liver, ion (formula + adduct): [C46H77O10P-H] 1-", "value": 288.6, "unit": "Å²"}
    ]},
    {"smiles": "CCCCC/C=C\\C/C=C\\C/C=C\\C/C=C\\CCCC(=O)O[C@H](COC(=O)CCCCCCCCCCCCCCCCC)COP(=O)([O-])OCC[N+](C)(C)C", "note": "[PC 18:0_20:4]", "values": [
      {"measurement": "TIMS collisional cross section", "setting": "sample type: Human plasma, ion (formula + adduct): [C46H84NO8P+HCOO] 1-", "value": 299.5, "unit": "Å²"},
      {"measurement": "TIMS collisional cross section", "setting": "sample type: Mouse Liver, ion (formula + adduct): [C46H84NO8P+HCOO] 1-", "value": "299.5 ± 0.85", "unit": "Å²"},
      {"measurement": "TIMS collisional cross section", "setting": "sample type: Mouse Liver, ion (formula + adduct): [C46H84NO8P-CH3] 1-", "value": 282.4, "unit": "Å²"}
    ]},
    {"smiles": "CC/C=C\\C/C=C\\C/C=C\\C/C=C\\CCCCC(=O)OC[C@@H](O)COP(=O)(O)OC1[C@H](O)[C@H](O)C(O)[C@H](O)[C@H]1O", "note": "(stereo partly specified) [LPI 18:4_0:0]", "values": [
      {"measurement": "TIMS collisional cross section", "setting": "sample type: Mouse Liver, ion (formula + adduct): [C27H45O12P+AcO] 1-", "value": 244.9, "unit": "Å²"}
    ]},
    {"smiles": "CCCCC/C=C\\C/C=C\\CCCCCCCC(=O)O[C@H](COC(=O)CCCCCCC/C=C\\CCCCC)COP(=O)([O-])OCC[N+](C)(C)C", "note": "[PC 15:1_18:2]", "values": [
      {"measurement": "TIMS collisional cross section", "setting": "sample type: Mouse Liver, ion (formula + adduct): [C41H76NO8P+HCOO] 1-", "value": 286.5, "unit": "Å²"}
    ]},
    {"smiles": "CCCCC/C=C\\C/C=C\\CCCCCCCC(=O)O[C@H](COCCCCCCCCCCCCCCCCCC)COP(=O)([O-])OCC[N+](C)(C)C", "note": "[PC O- 18:0@_18:2]", "values": [
      {"measurement": "TIMS collisional cross section", "setting": "sample type: Mouse Liver, ion (formula + adduct): [C44H86NO7P-CH3] 1-", "value": 276.8, "unit": "Å²"}
    ]},
    {"smiles": "CC/C=C\\C/C=C\\C/C=C\\C/C=C\\C/C=C\\C/C=C\\CCC(=O)O[C@H](COC(=O)CCCCCCC/C=C\\CCCCCC)COP(=O)([O-])OCC[N+](C)(C)C", "note": "[PC 16:1_22:6]", "values": [
      {"measurement": "TIMS collisional cross section", "setting": "sample type: Human plasma, ion (formula + adduct): [C46H78NO8P+HCOO] 1-", "value": 295.4, "unit": "Å²"}
    ]},
    {"smiles": "CCCCC/C=C\\C/C=C\\C/C=C\\C/C=C\\CCCC(=O)OC[C@H](COP(=O)(O)OC[C@H](N)C(=O)O)OC(=O)CCCCCCCCCCCCCCC", "note": "[PS 20:4_16:0]", "values": [
      {"measurement": "TIMS collisional cross section", "setting": "sample type: Mouse Liver, ion (formula + adduct): [C42H74NO10P-H] 1-", "value": 280.1, "unit": "Å²"}
    ]},
    {"smiles": "CCCCC/C=C\\C/C=C\\C/C=C\\C/C=C\\CCCC(=O)OC[C@H](COP(=O)(O)OC[C@H](N)C(=O)O)OC(=O)CCCCCCC/C=C\\C/C=C\\CCCCC", "note": "[PS 20:4_18:2@]", "values": [
      {"measurement": "TIMS collisional cross section", "setting": "sample type: Mouse Liver, ion (formula + adduct): [C44H74NO10P-H] 1-", "value": 286.4, "unit": "Å²"}
    ]},
    {"smiles": "CCCCC/C=C\\C/C=C\\C/C=C\\C/C=C\\CCCC(=O)OC[C@H](COP(=O)(O)OC[C@H](N)C(=O)O)OC(=O)CCCCCCC/C=C\\CCCCCCCC", "note": "[PS 20:4_18:1]", "values": [
      {"measurement": "TIMS collisional cross section", "setting": "sample type: Mouse Liver, ion (formula + adduct): [C44H76NO10P-H] 1-", "value": 284.6, "unit": "Å²"}
    ]},
    {"smiles": "CCCCC/C=C\\C/C=C\\C/C=C\\C/C=C\\CCCC(=O)O[C@H](COC(=O)CCCCCCCCCCCCC)COP(=O)([O-])OCC[N+](C)(C)C", "note": "[PC 14:0@_20:4]", "values": [
      {"measurement": "TIMS collisional cross section", "setting": "sample type: Mouse Liver, ion (formula + adduct): [C42H76NO8P-H] 1-", "value": 272.8, "unit": "Å²"}
    ]}
  ]
}
